The source of these data is ChEMBL document CHEMBL4613243, “Calosides A-F, Cardenolides from Calotropis gigantea and Their Cytotoxic Activity” (J Nat Prod, 2020).

Assay [1] concerns HeLa. Briefly: Antiproliferative activity against human HeLa cells assessed as reduction in cell viability after 72 hrs by WST-8 assay. Format: functional, cell-based.
For assay [2], the system named is PANC-1. Briefly: Antiproliferative activity against human PANC1 cells assessed as reduction in cell viability after 72 hrs by WST-8 assay. The class given is functional, cell-based. Particulars: PANC-1, 72 h. A general note: Formazan colour is commonly taken as a measure of viable cells.
The test system of assay [3] is PANC-1. Briefly: Cytotoxicity against human PANC1 cells assessed as reduction in cell viability at 0.78 uM after 74 hrs by crystal violet staining based assay. Format: functional.
Assay [4] concerns PANC-1. Briefly: Cytotoxicity against human PANC1 cells assessed as reduction in cell viability at 0.05 to 100 uM after 74 hrs by crystal violet staining based assay. The class given is functional.

The source made the active and inactive calls. The rule behind the calls is not given here.

For orientation: IC50 means the concentration that gives 50% inhibition. For `C[C@H]1C[C@@](O)(CC(=O)O)[C@]2(O)O[C@@H]3C[C@@]4(C=O)[C@@H](CC[C@@H]5[C@@H]4CC[C@]4(C)[C@@H](C6=CC(=O)OC6)CC[C@]54O)C[C@H]3O[C@H]2O1`, the IC50 in assay [1] amounted to 1600 nM; in assay [2], 1000 nM.

Turning to `C[C@]12CC[C@H]3[C@@H](CC[C@@H]4C[C@H](O[C@@H]5O[C@H](CO)[C@@H](O)[C@@H](O[C@H]6O[C@H](CO)[C@@H](O)[C@H](O)[C@H]6O)[C@H]5O)CC[C@@]43CO)[C@@]1(O)CC[C@@H]2C1=CC(=O)OC1`, in assay [3], the Activity is given as 100%. Moreover, the results for the concentration for half-maximal inhibition (IC50) in assay [1] and in assay [2] were 170 nM and 80 nM, respectively.

For `COC(=O)[C@@]1(C)C[C@@H](C)O[C@H]1O[C@@H]1C[C@H]2CC[C@@H]3[C@H](CC[C@]4(C)[C@@H](C5=CC(=O)OC5)C[C@@H](O)[C@]34O)[C@@]2(C(=O)O)C[C@H]1O`, the IC50 in assay [1] was > 10000 nM; in assay [2] it was 5200 nM.

For the compound `C[C@H]1O[C@@H](O[C@@H]2CC[C@@]34CO[C@@]5(CC[C@@H]3C2)[C@@H]4CC[C@]2(C)[C@H](C3=CC(=O)OC3)CC[C@@H]25)[C@H](O)[C@H](O)[C@@H]1O`, the IC50 in assay [1] was > 10000 nM; in assay [2], 4600 nM.

Take `C[C@]12CC[C@H]3[C@@H](CC[C@@H]4C[C@H](O[C@@H]5O[C@H](CO)[C@@H](O)[C@H](O[C@H]6O[C@H](CO)[C@@H](O)[C@H](O)[C@H]6O)[C@H]5O)CC[C@@]43CO)[C@@]1(O)CC[C@@H]2C1=CC(=O)OC1`: the Activity in assay [3] turned out to be 100%. The IC50 in assay [1] is 170 nM; in assay [2] it was 70 nM.

As to `C[C@]12CC[C@H]3[C@@H](CC[C@@H]4C[C@@H](O[C@@H]5O[C@H](CO)[C@@H](O)[C@@H](O)[C@H]5O)CC[C@@]43C=O)[C@@]1(O)CC[C@@H]2C1=CC(=O)OC1`, the IC50 in assay [1] was found to be 380 nM; in assay [2], 150 nM.

Turning to `C[C@@H]1C[C@H](O)[C@]2(O)O[C@@H]3C[C@@]4(C=O)[C@@H](CC[C@@H]5[C@@H]4CC[C@]4(C)[C@@H](C6=CC(=O)OC6)CC[C@]54O)C[C@H]3O[C@@H]2O1` [CALOTROPIN], the 50% inhibitory concentration (IC50) in assay [1] and in assay [2] was > 10000 nM throughout.

Regarding `C[C@]12CC[C@H]3[C@@H](CC[C@@H]4C[C@@H](O)[C@H](O)C[C@@]43C=O)[C@@]1(O)[C@H](O)C[C@@H]2C1=CC(=O)OC1`, the IC50 in assay [1] and in assay [2] was > 10000 nM each time.

On to `Nc1ccn([C@@H]2O[C@H](CO)[C@@H](O)C2(F)F)c(=O)n1` [GEMCITABINE], for which the result in assay [4] was inactive. Also, the IC50 in assay [2] was 5900 nM.

`C[C@]12CC[C@H]3[C@@H](CC[C@@H]4C[C@H](O[C@@H]5O[C@H](CO)[C@@H](O)[C@@H](O)[C@H]5O)CC[C@@]43CO)[C@@]1(O)CC[C@@H]2C1=CC(=O)OC1`: the IC50 is 560 nM in assay [1] and 280 nM in assay [2].

Consider `C[C@]12CC[C@H]3[C@@H](CC[C@@H]4C[C@H](O[C@@H]5O[C@H](CO)[C@@H](O)[C@@H](O)[C@H]5O)CC[C@@]43COC=O)[C@@]1(O)CC[C@@H]2C1=CC(=O)OC1`, for which the half-inhibitory concentration (IC50) in assay [1] is 670 nM; in assay [2], 250 nM.

In the case of `C[C@]12CC[C@H]3[C@@H](CC[C@@H]4C[C@@H](O)[C@H](O)C[C@@]43CO)[C@@]1(O)CC[C@@H]2C1=CC(=O)OC1`, the IC50 in assay [1] is > 10000 nM; in assay [2] it was 5100 nM.
